{"source": "patent US20120201768A1", "about": "“COSMETIC COMPOSITIONS COMPRISING FICUS SERUM FRACTION AND METHODS TO REDUCE THE APPEARANCE OF SKIN HYPERPIGMENTATION” (priority 2010, published 2012)", "tested_on": "hyperpigmented spots", "experiment": "In vivo testing for hyperpigmented spot reduction and melanin evenness (9 week split face study)", "design": "species or system humans", "conditions": "for Melanin Evenness versus Vehicle / NC2 SAF (spot area fraction) versus Vehicle: vehicle+0.55% FSF or vehicle+5% Niacinamide, twice daily, split face", "procedure": "A 9 week in-vivo study was conducted using a round robin, vehicle controlled, split face design including a 1 week normalization period with 270 subjects. The 270 subjects were screened according to inclusion/exclusion criteria which included the following:\nHas hyperpigmented spots around cheek and/or periorbital area on both sides of the face.\nHas at least 1 hyperpigmented spot of 8-10 mm diameter, 4 spots of 4-6 mm or 10 spots of 2-3 mm diameter (sun spots, freckles, or melasma spots) or equivalent spot area in the cheek area on each side of their face.\nIs willing to refrain from sun exposure by using supplied UV lotion and physical UV blocks, such as a hat, to avoid facial sunburn, tanning or wind burn.\nHas been diagnosed as having atopy, eczema, psoriasis, or other chronic skin diseases.\nHas obvious signs of facial skin disease (e.g., more than 5 pimples, areas of red scaling skin, superficial thin blood vessels, etc.).\nHas significant areas of discoloration or scarring on the face.\nHas more than 3 prominent moles (<3 mm) on the face.\nTwo hundred and seventy subjects were recruited for the study. […] Each subject received two coded test formulations for twice daily application to each half of the face. Images of the facial treatment sites were captured at baseline (week 0), and after 4 and 8 weeks of treatment and analyzed for changes to skin color and spot size and color. The product formulations included a vehicle control, the vehicle+0.55% FSF, and the vehicle+5% vitamin B3 compound (Niacinamide).\nNoncontact spectrophotometric intracutaneous analysis (SiaScopy, Astron Clinica, UK) was used to collect and analyze the subject images. The method used a digital camera (e.g., Fuji S2 digital SLR) as a […] and a flash lighting source (e.g., Sigma Super flash light source) to recover facial chromophore information. A cross polarized filter was placed in front of the camera and the lighting source to eliminate specular reflection.\nChromophore mapping of the concentration and distribution of eumelanin (melanin) and oxyhaemoglobin produces grayscale concentration maps of each of these chromophores. Image analysis software, such as Optimas 6.5, can be used to select a region of interest in each chromophore map from which mean grayscale values and spot area fraction are calculated. Spot area fraction refers to total area occupied by melanin spots as a percentage of the whole region of interest. A description of one type of chromophore mapping can be found in EP 1,810,614 and “The Distribution of Melanin in Skin Determined In Vivo”, British Journal of Dermatology, 2007, pp 620-628.\nTable 15 summarizes the image analysis data, wherein SAF is the mean Spot Area Fraction and A SAF is the mean change in Spot Area Fraction from baseline (week 0)."}
{"smiles": "NC(=O)c1cccnc1", "note": "[Niacinamide]", "values": [{"measurement": "Melanin Evenness versus Vehicle", "setting": "4 weeks", "result": "ns (ns = not significant (p > 0.3))"}, {"measurement": "NC2 SAF (spot area fraction) versus Vehicle", "setting": "4 weeks", "result": "ns (ns = not significant (p > 0.3))"}, {"measurement": "Melanin Evenness versus Vehicle", "setting": "8 weeks", "result": "Sig"}, {"measurement": "NC2 SAF (spot area fraction) versus Vehicle", "setting": "8 weeks", "result": "Sig"}, {"measurement": "reduction of hyperpigmented spots (in words)", "setting": "after 8 weeks, vehicle+0.55% FSF, vehicle+5% vitamin B3, control", "result": "best performer"}]}
